Source: patent publication US7307044B2, “3-biphenyl-substituted-3-substituted-4-ketolactam and ketolactone and their utilization as pesticide” (Bayer CropScience AG, priority 2001, dated 2007)

Legend:
Format in all cases: in vivo
[1] = system: caterpillars of the armyworm (Spodoptera frugiperda); experiment: Spodoptera frugiperda test; settings: 500 ppm, cabbage leaves dipped
Experimental: (§1) Spodoptera frugiperda Test Solvent: 7 parts by weight of dimethylformamide Emulsifier: 2 parts by weight of alkylaryl polyglycol ether To produce a suitable preparation of active compound, 1 part by weight of active compound is mixed with the stated amounts of solvent and emulsifier, and the concentrate is diluted with emulsifier-containing water to the desired concentration. Cabbage leaves (Brassica oleracea) are treated by being dipped into the preparation of active compound of the desired concentration and are populated with caterpillars of the armyworm (Spodoptera frugiperda) while the leaves are still moist. After the desired period of time, the kill in % is determined. 100% means that all caterpillars have been killed; 0% means that none of the caterpillars have been killed.

Avena fatua [2] = experiment: Post-emergence test (greenhouse); settings: after three weeks
Experimental: (§2) Solvent: 5 parts by weight of acetone
(§3) Emulsifier: 1 part by weight of alkylaryl polyglycol ether
(§4) To produce a suitable preparation of active compound, 1 part by weight of active compound is mixed with the stated amount of solvent, the stated amount of emulsifier is added and the concentrate is diluted with water to the desired concentration.
(§5) Test plants of a height of 5-15 cm are sprayed with the preparation of active compound such that the particular amounts of active compound desired are applied per unit area. The concentration of the spray liquor is chosen such that the particular amounts of active compound desired are applied in 1000 l of water/ha.
(§6) After three weeks, the degree of damage to the plants is rated in % damage in comparison to the development of the untreated control.
(§7) The figures denote: • 0%=no effect (like untreated control) • 100%=total destruction

Setaria [3] = experiment: Post-emergence test (greenhouse); settings: after three weeks
Experimental: as §2, §3, §4, §5, §6, §7

Alopecurus [4] = experiment: Post-emergence test (greenhouse); settings: after three weeks
Experimental: as §2, §3, §4, §5, §6, §7

Digitaria = experiment: Post-emergence test (greenhouse); settings: 125 g ai/ha, after three weeks
Experimental: as §2, §3, §4, §5, §6, §7

Echinochloa [5] = experiment: Post-emergence test (greenhouse); settings: after three weeks
Experimental: as §2, §3, §4, §5, §6, §7

Sugar beet = experiment: Post-emergence test (greenhouse); settings: 125 g ai/ha, after three weeks
Experimental: as §2, §3, §4, §5, §6, §7

[6] = system: apple scab pathogen Venturia inaequalis; experiment: Venturia test (apple)/protective; settings: protective, evaluation 10 days after inoculation
Experimental: Venturia Test (Apple)/Protective Solvents: 24.5 parts by weight of acetone • 24.5 parts by weight of dimethylacetamide Emulsifier: 1.0 part by weight of alkylaryl polyglycol ether To produce a suitable preparation of active compound, 1 part by weight of active compound is mixed with the stated amounts of solvent and emulsifier, and the concentrate is diluted with water to the desired concentration. To test for protective activity, young plants are sprayed with the preparation of active compound at the stated application rate. After the spray coating has dried on, the plants are inoculated with an aqueous conidia suspension of the apple scab pathogen Venturia inaequalis and then remain in an incubation cabin at about 20° C. and 100% relative atmospheric humidity for 1 day. The plants are then placed in a greenhouse at about 21° C. and a relative atmospheric humidity of about 90%.

[7] = system: larvae of the mustard beetle (Phaedon cochleariae); experiment: Phaedon larvae test; settings: 500 ppm, cabbage leaves dipped
Experimental: as §1, with “Phaedon Larvae Test” for “Spodoptera frugiperda Test”, “with larvae” for “with caterpillars”, “the mustard beetle (Phaedon cochleariae)” for “the armyworm (Spodoptera frugiperda)”, “all beetle larvae” for “all caterpillars”, “the beetle larvae” for “the caterpillars”

[8] = system: greenhouse red spider mite (Tetranychus urticae); experiment: Tetranychus test (OP-resistent/dip treatment); settings: 100 ppm, bean plants dipped
Experimental: Tetranychus Test (OP-Resistent/Dip Treatment)
Solvent: 7 parts by weight of dimethylformamide
Emulsifier: 2 parts by weight of alkylaryl polyglycol ether
To produce a suitable preparation of active compound, 1 part by weight of active compound is mixed with the stated amounts of solvent and emulsifier, and the concentrate is diluted with emulsifier-containing water to the desired concentration.
Bean plants (Phaseolus vulgaris) which are heavily infested by all stages of the greenhouse red spider mite (Tetranychus urticae) are dipped into a preparation of active compound of the desired concentration.
After the desired period of time, the effect in % is determined. 100% means that all spider mites have been killed; 0% means that none of the spider mites have been killed.

[9] = system: green peach aphid (Myzus persicae); experiment: Myzus test; settings: 500 ppm, cabbage leaves dipped
Experimental: as §1, with “Myzus” for “Spodoptera frugiperda”, “oleracea) which are heavily infested by the green peach aphid (Myzus persicae)” for “oleracea)”, “concentration.” for “concentration and are populated with caterpillars of the armyworm (Spodoptera frugiperda) while the leaves are still moist.”, “aphids” for “caterpillars”

Plasmopara viticola = experiment: Plasmopara test (grapevine)/protective; settings: protective, evaluation 6 days after inoculation
Experimental: Plasmopara Test (Grapevine)/Protective Solvents: 24.5 parts by weight of acetone • 24.5 parts by weight of dimethylacetamide Emulsifier: 1.0 part by weight of alkylaryl polyglycol ether To produce a suitable preparation of active compound, 1 part by weight of active compound is mixed with the stated amounts of solvent and emulsifier, and the concentrate is diluted with water to the desired concentration. To test for protective activity, young plants are sprayed with the preparation of active compound at the stated application rate. After the spray coating has dried on, the plants are inoculated with an aqueous spore suspension of Plasmopara viticola and then remain in an incubation cabin at 20° C. and 100% relative atmospheric humidity for 1 day. The plants are then placed in a greenhouse at about 21° C. and about 90% atmospheric humidity for 4 days. The plants are then moistened and placed in an incubation cabin for 1 day.

Sinapis = experiment: Post-emergence test (greenhouse); settings: 250 g ai/ha, after three weeks
Experimental: as §2, §3, §4, §5, §6, §7

Avena fatua [10] = experiment: Pre-emergence test (greenhouse); settings: 250 g ai/ha, after three weeks
Experimental: (§8) Pre-Emergence Test Solvent: 5 parts by weight of acetone Emulsifier: 1 part by weight of alkylaryl polyglycol ether To produce a suitable preparation of active compound, 1 part by weight of active compound is mixed with the stated amount of solvent, the stated amount of emulsifier is added and the concentrate is diluted with water to the desired concentration. Seeds of the test plants are sewn in normal soil. After about 24 hours, the soil is sprayed with the preparation of active compound such that the particular amounts of active compound desired are applied per unit area. The concentration of the spray liquor is chosen such that the particular amounts of active compound desired are applied in 1000 l of water/ha. After three weeks, the degree of damage to the plants is rated in % damage in comparison to the development of the untreated control. The figures denote: • 0%=no effect (like untreated control) • 100%=total destruction

Amaranthus [11] = experiment: Pre-emergence test (greenhouse); settings: 250 g ai/ha, after three weeks
Experimental: as §8

Setaria [12] = experiment: Pre-emergence test (greenhouse); settings: 250 g ai/ha, after three weeks
Experimental: as §8

Alopecurus [13] = experiment: Pre-emergence test (greenhouse); settings: 250 g ai/ha, after three weeks
Experimental: as §8

Echinochloa [14] = experiment: Pre-emergence test (greenhouse); settings: 250 g ai/ha, after three weeks
Experimental: as §8

Amaranthus [15] = experiment: Post-emergence test (greenhouse); settings: 250 g ai/ha, after three weeks
Experimental: as §2, §3, §4, §5, §6, §7

SMILES	Kill rate in % after 7 d [1] [%]	degree of damage to the plants in % damage (Avena fatua [2]; 125 g ai/ha) [%]	degree of damage to the plants in % damage (Setaria [3]; 125 g ai/ha) [%]	degree of damage to the plants in % damage (Alopecurus [4]; 125 g ai/ha) [%]	degree of damage to the plants in % damage (Digitaria) [%]	degree of damage to the plants in % damage (Echinochloa [5]; 125 g ai/ha) [%]	degree of damage to the plants in % damage (Sugar beet) [%]	Kill rate in % after 7 d [7] [%]	Kill rate in % after 7 d [8] [%]	degree of damage to the plants in % damage (Avena fatua [2]; 250 g ai/ha) [%]	degree of damage to the plants in % damage (Setaria [3]; 250 g ai/ha) [%]	degree of damage to the plants in % damage (Sinapis) [%]	degree of damage to the plants in % damage (Alopecurus [4]; 250 g ai/ha) [%]	degree of damage to the plants in % damage (Echinochloa [5]; 250 g ai/ha) [%]	degree of damage to the plants in % damage (Amaranthus [15]) [%]	other results
Cc1ccc(-c2ccc(Cl)cc2)cc1C1(Cl)C(=O)NC(C)(C)C1=O (stereo not shown) [Ex. I-1-1]	100	100	100	95	90	100	0	100	100	–	–	–	–	–	–	Emax at 100 g/ha ([6]; Venturia inaequalis, 240 h, read-out: % efficacy): 97%; Kill rate in % after 6 d [9]: 95%; Emax at 100 g/ha (Plasmopara viticola; Plasmopara viticola, 144 h, read-out: % efficacy): 100%
CC1(C)NC(=O)C(Cl)(c2cc(-c3ccc(Cl)cc3)ccc2Cl)C1=O (stereo not shown) [Ex. I-1-2]	100	95	90	90	100	100	0	100	100	–	–	–	–	–	–	% efficacy ([6]; 100 g/ha): 96%; % efficacy (Plasmopara viticola; 100 g/ha): 100%
COC1CCC2(CC1)NC(=O)C(Cl)(c1c(C)cc(-c3cccc(Cl)c3)cc1C)C2=O (stereo not shown) [Ex. I-1-4]	–	–	–	–	–	–	–	–	–	100	100	70	100	100	–	degree of damage to the plants in % damage (Avena fatua [10]): 90%; degree of damage to the plants in % damage (Amaranthus [11]): 90%; degree of damage to the plants in % damage (Setaria [12]): 100%; degree of damage to the plants in % damage (Alopecurus [13]): 95%; degree of damage to the plants in % damage (Echinochloa [14]): 100%
Cc1cc(-c2ccc(Cl)cc2)cc(Cl)c1C1(Cl)C(=O)NC2(CCCOC2)C1=O (stereo not shown) [Ex. I-1-8]	–	–	–	–	–	–	–	–	98	95	100	80	95	100	70	–
CCOC1CCC2(CC1)NC(=O)C(Cl)(c1c(C)cc(-c3ccc(Cl)cc3)cc1CC)C2=O (stereo not shown) [Ex. I-1-10]	–	–	–	–	–	–	–	–	–	100	100	80	100	100	80	–
